Assay results published in BindingDB's records for doi:10.1016/j.bmcl.2007.01.009 (Karo Bio, 2007).

Molecular target: T1, Thyroid hormone receptor alpha (Homo sapiens, UniProt P10827)
T1 sequence (P10827 whole entry): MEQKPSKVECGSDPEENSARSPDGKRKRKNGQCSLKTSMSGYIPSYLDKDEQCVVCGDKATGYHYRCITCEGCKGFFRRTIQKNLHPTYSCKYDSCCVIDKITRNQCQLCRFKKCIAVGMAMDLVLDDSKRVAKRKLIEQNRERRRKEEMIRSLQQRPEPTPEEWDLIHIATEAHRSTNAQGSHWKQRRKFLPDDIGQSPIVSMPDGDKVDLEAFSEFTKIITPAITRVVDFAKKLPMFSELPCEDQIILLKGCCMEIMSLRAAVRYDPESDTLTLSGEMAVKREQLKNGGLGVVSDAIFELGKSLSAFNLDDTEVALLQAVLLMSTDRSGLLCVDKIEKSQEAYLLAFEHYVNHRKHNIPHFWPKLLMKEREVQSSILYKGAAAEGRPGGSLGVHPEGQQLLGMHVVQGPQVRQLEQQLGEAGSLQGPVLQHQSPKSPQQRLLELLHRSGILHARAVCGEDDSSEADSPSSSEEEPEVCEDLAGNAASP
Experiment: TRalpha-Binding Assay and Thyroid Response Element (TRAFalpha1) Reporter Assay.
Settings: pH 7; 4 °C
Description: EC50 is the concentration of compound required to reach or inhibit (agonist or antagonist) 50% of T3-induced TRalpha-activation in CHOK1 cells stably transfected with hTRalpha using alkaline phosphatase reporter assay.

Work on `O=C(O)CCc1cc(Br)c(OCc2cccc(Br)c2)c(Br)c1` [3-{3,5-dibromo-4-[(3-bromophenyl)methoxy]phenyl}propanoic acid] yielded an EC50 of 380 nM.
